From PMC11547703, “Design, Synthesis, and Evaluation of Doxifluridine Derivatives as Nitroreductase-Responsive Anticancer Prodrugs” (Molecules, 2024)
Read-outs that look alike come from different tables or passages of the source.

Experiments:
[1] = biological target: T1, NTR extracted from Escherichia coli (Escherichia coli, UniProt P38489); assay: In vitro release evaluation: incubation with NTR and NADH, HPLC of derivative and released 5′-DFUR; format: biochemical; conditions: for concentration remaining under NTR conditions after 12 h / time after which compound was completely degraded by NTR / 5′-DFUR released: NTR 50 µg/mL, NADH 2 mM, PBS pH 7.4, 37 °C; for time after which compound was completely degraded by NTR / 5′-DFUR released: 50 µM compound; for 5′-DFUR released: at complete degradation
T1 construct: host or cells: Escherichia coli
T1 sequence (P38489 whole entry): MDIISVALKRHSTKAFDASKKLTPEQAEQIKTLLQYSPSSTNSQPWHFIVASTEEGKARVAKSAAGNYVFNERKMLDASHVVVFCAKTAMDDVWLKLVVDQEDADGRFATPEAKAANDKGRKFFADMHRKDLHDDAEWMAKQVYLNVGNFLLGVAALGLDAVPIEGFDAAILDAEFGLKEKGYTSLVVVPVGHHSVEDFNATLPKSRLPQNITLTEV
Method: (§1) NTR levels are reportedly much higher in hypoxic tumors than in normal tissues. To investigate the mechanism of activation of the derivatives and the amount of 5′-DFUR released, we treated the target compounds with NTR extracted from Escherichia coli to determine whether they provided the desired active agent as expected. The test compounds (50 µM, 1% dimethyl sulfoxide [DMSO]) were dissolved in PBS buffer at pH 7.4 and incubated with NTR (50 µg/mL) and NADH (2 mM) at 37 °C, and the concentrations of the derivatives and 5′-DFUR during the bioreduction were detected by high-performance liquid chromatography (HPLC). The designed target compounds 1c–3c could be metabolized to form 5′-DFUR in the presence of NTR, while the nitro-free compounds 4c–6c could not be metabolized to form 5′-DFUR. […] The metabolic rate of compound 2c was the highest, with a half-life of 0.6 h. It was completely degraded after 4 h, and 69.6% of 5′-DFUR was released. […] During the experiment, other metabolites, such as hydroxylamine derivatives and amino derivatives generated by reducing the nitro group were also detected. […] Compounds 4c, 5c and 6c, without nitro groups, remained well-stabilized under NTR conditions, with concentrations > 90% after 12 h.
(§2) The target compounds NTR and NADH were dissolved in 10 mM PBS (pH 7.4; 1% DMSO). The final concentrations of the target compounds NTR and NADH in the mixtures were 50 μM, 50 μg/mL, and 2 mM, respectively. The mixture were incubated at 37 °C. The sample (100 μL) was collected and quenched by 100 µL of cold methanol. The mixture was vortexed for 5 min and centrifuged at 10,000× g for 10 min. The supernatant was transferred to a vial for HPLC analysis at 0.25, 0.5, 1, 2, 4, 8, and 12 h.

[2] = system: MCF-7 human breast cancer cells; assay: In vitro cytotoxicity (MTT assay) in MCF-7 cells with or without NTR; format: cell-based; conditions: for IC50: Homo sapiens, MCF7, MCF-7, 24 h, MTT; for IC50 (NTR-Free)/ IC50 (NTR): MCF-7, selectivity ratio
Method: (§3) The cytotoxicity of the target compounds 1c–6c were evaluated in MCF-7 human breast cancer cells and HT29 human colon cancer cells. These two cell lines were chosen because 5′-DFUR is currently used to treat breast and gastrointestinal tumors. The cells were incubated with the target compounds at various concentrations for 24 h in the presence or absence of NTR. The cell viability and proliferation behavior were assessed by 3-(4,5-dimethylthiazol-2-yl)-2,5-diphenyltetrazolium (MTT) assay. The half-maximal inhibitory concentration values of the tested compounds for inhibiting cell proliferation are shown in Table 1.
(§4) MCF-7 human breast cancer cells or HT29 human colon cancer cells purchased from the National Collection of Authenticated Cell Cultures were cultured in RPMI 1640 medium, and McCoy’s 5A medium supplemented with 10% fetal bovine serum and 1% penicillin-streptomycin in a humidified 5% CO2 incubator at 37 °C. Cells in the logarithmic growth phase were inoculated into 96-well plates at a density of 1.0 × 10^4 cells per well and cultured for 24 h. The target compounds were dissolved in DMSO and diluted in medium to different concentrations. The cells were then incubated with different concentrations of the target compound for 24 h. The cells in the NTR treatment group were incubated with various concentrations of compounds, NTR (final concentration, 50 µg/mL) and NADH (final concentration, 2 mM) for 24 h. Cell viability and proliferation were measured by MTT assay. Cell viability was calculated according to the following formula: cell viability (%) = (OD value of treatment group–OD value of blank group)/(OD value of control group–OD value of blank group) × 100. The half-maximal inhibitory concentration values were calculated from concentration-response curves using GraphPad PRISM (version 5.0, GraphPad, San Diego, CA, USA).

[3] = system: HT29 human colon cancer cells; assay: In vitro cytotoxicity (MTT assay) in HT29 cells with or without NTR; format: cell-based; conditions: for IC50 (NTR-Free)/ IC50 (NTR): HT29, selectivity ratio; for IC50: Homo sapiens, HT-29, HT29, 24 h, MTT
Method: as §3, §4

[4] = Stability of target compounds in phosphate-buffered saline (pH 6.5 and pH 7.4), HPLC; format: physicochemical; conditions: PBS pH 6.5 and 7.4, mouse and rat plasma (Figure S1)
Method: (§5) The stability of the target compounds was tested first, and excellent stability was essential for physiological function evaluation. Phosphate-buffered saline (PBS) of different pH values was used to evaluate the stability of the target compounds in a weakly acidic tumor microenvironment (pH 6.5) versus a weakly alkaline normal physiological environment (pH 7.4). […] The stability of the target compounds in mouse and rat plasma was excellent. The concentrations of all target compounds remained at >80% of the initial concentrations after 24 h, with the concentrations of compounds 1c, 2c, and 3c being 89%, 88%, and 83% in mouse plasma and 86%, 84%, and 81% in rat plasma, respectively (Figure 3c,d).
(§6) PBS (pH 7.4) was made with 137 mM NaCl, 2.7 mM KCl, 10 mM Na2HPO4, and 1.8 mM KH2PO4, while PBS (pH 6.5) was made with 24.6 mM Na2HPO4 and 175.4 mM NaH2PO4. The target compounds were dissolved into the different buffers (50 μM; 1% DMSO), and the mixtures were incubated at 37 °C. A 100-μL sample was transferred to a vial for HPLC analysis at 1, 2, 4, 8, 12, and 24 h. C57BL/6 mice and SD rat orbital whole blood was collected into anticoagulation tubes and centrifuged at 4000× g for 5 min at 4 °C to obtain plasma. The target compounds were dissolved into the plasma (50 μM; 1% DMSO) and incubated at 37 °C. Each sample (100 μL) was collected and precipitated using 100 μL of acetonitrile. The mixture was vortexed for 5 min and centrifuged at 10,000× g for 10 min. The supernatant was transferred to a vial for HPLC analysis after 1, 2, 4, 8, 12, and 24 h.

[5] = Stability of target compounds in mouse plasma, HPLC; format: in vitro ADME, C57BL/6 mice; conditions: 50 μM, 37 °C
Method: as §5, §6

[6] = biological target: T2, NTR (Escherichia coli, UniProt P38489); assay: In vitro release evaluation: incubation with NTR and NADH, HPLC of derivative and released 5′-DFUR; format: biochemical; conditions: Escherichia coli; 50 µM compound, NTR 50 µg/mL, NADH 2 mM, PBS pH 7.4, 37 °C; read-out: half-life in the presence of NTR (converted)
T2 construct: host or cells: Escherichia coli
T2 sequence (P38489 whole entry): as above
Method: as §1, §2

[7] = Stability of target compounds in rat plasma, HPLC; format: in vitro ADME, SD rat; conditions: 50 μM, 37 °C
Method: as §5, §6

[8] = system: HT29 colon cancer cells; assay: In vivo antitumor activity in HT29 tumor-bearing mice; conditions: for tumor growth inhibition (TGI) rate: 50 mg/kg intraperitoneally every 2 days for 4 weeks, HT29 tumor-bearing C57BL/6 mice
Method: Compound 2c, which has excellent stability, a high metabolic rate, and strong cytotoxicity under NTR conditions in vitro, was selected for the in vivo evaluation of antitumor activity in tumor-bearing mice. Tumor-bearing mice were generated by the axillary injection of HT29 colon cancer cells into C57BL/6 mice. When the tumors grew to approximately 100–150 mm^3, the mice were randomly divided into negative control (vehicle), compound 2c (50 mg/kg), and positive control 5′-DFUR (50 mg/kg) groups (n = 6 each). The mice were injected intraperitoneally every 2 days for 4 weeks, and the tumor volume and body weight of the mice were measured every 2 days. No death occurred in any group of mice during the experimental period.
Four-week-old C57BL/6 mice were purchased from Jinan Pengyue Experimental Animal Breeding Co. Ltd. (Jinan, China). The mice were housed in cages under a 12-h light/dark cycle from 7:00 to 19:00 at controlled temperatures (25–26 °C) and relative humidity (50 ± 10%) throughout the experimental period. All animals were allowed to eat and drink freely unless otherwise stated and allowed to acclimate for 1 week before the experiment. All animal experimental protocols were performed in accordance with applicable institutional and governmental regulations concerning the ethical use of animals (AP2024022954).
The tumor-bearing mice model was established by the subcutaneous injection of HT29 cells (1 × 10^7 cells/mL) purchased from the National Collection of Authenticated Cell Cultures to the right axilla of C57BL/6 mice (100 µL/mouse). When the tumor size reached 100–150 mm^3, the mice were evenly divided into negative control (vehicle), group 2c (50 mg/kg), and 5′-DFUR (50 mg/kg) groups (n = 6 each). Compound 2c and 5′-DFUR were dissolved in a solution containing 10% ethanol, 10% castor oil, and 80% saline that also served as the negative control. The mice were injected intraperitoneally every 2 days for 4 weeks, and the tumor volumes and body weights of the mice were measured every 2 days. Tumor volume was calculated using the following formula: tumor volume = length (mm) × width (mm) × width (mm) × 0.5. The TGI rate was determined as follows: TGI = 1 − (treatment final volume − treatment initial volume)/(control final volume − control initial volume) × 100%.

[9] = medium with NTR and NADH 2 mM, read-out: IC50 NTR
[10] = medium without NTR, read-out: IC50 NTR-Free

| SMILES | concentration remaining under NTR conditions after 12 h [1] | IC50 [2, 9] | IC50 [2, 10] | IC50 (NTR-Free)/ IC50 (NTR) [2] | IC50 (NTR-Free)/ IC50 (NTR) [3] | IC50 [3, 9] | IC50 [3, 10] | stability in PBS at different pH values and plasma (in words) [4] | concentration relative to initial concentration after 24 h in mouse plasma [5] | half-life at 50 µM [6] | time after which compound was completely degraded by NTR [1] | 5′-DFUR released [1] | concentration relative to initial concentration after 24 h in rat plasma [7] | tumor growth inhibition (TGI) rate [8] | amount of 5′-DFUR released (AUC0–12h of relative amount), comparison in words ([1]; versus 1c and 3c, Figure 4d) | drug-related toxic reactions (in words) ([8]; 50 mg/kg i.p. every 2 days for 4 weeks) | body weight of mice (in words) ([8]; 50 mg/kg i.p. every 2 days for 4 weeks, versus positive control 5′-DFUR group) |
| --- | --- | --- | --- | --- | --- | --- | --- | --- | --- | --- | --- | --- | --- | --- | --- | --- | --- |
| C[C@H]1O[C@@H](n2cc(F)c(=O)n(Cc3cccs3)c2=O)[C@H](O)[C@@H]1O [Compound 6c] | > 90% | 473 µM | 468 µM | 0.99 | 1.02 | 465 µM | 474 µM | similarly stable |  |  |  |  |  |  |  |  |  |
| C[C@H]1O[C@@H](n2cc(F)c(=O)n(Cc3ccc([N+](=O)[O-])s3)c2=O)[C@H](O)[C@@H]1O [Compound 3c] |  | 96.4 µM | 435 µM | 4.52 | 7.22 | 63.3 µM | 457 µM |  | 83% | 1 h | 8 h | 55.6% | 81% |  |  |  |  |
| C[C@H]1O[C@@H](n2cc(F)c(=O)[nH]c2=O)[C@H](O)[C@@H]1O [5′-DFUR, 5′-deoxy-5-fluorouridine, reference compound] |  | 86.7 µM | 83.6 µM | 0.96 | 1.05 | 48.1 µM | 50.4 µM |  |  |  |  |  |  | 83.0% |  |  |  |
| C[C@H]1O[C@@H](n2cc(F)c(=O)n(Cc3ccc([N+](=O)[O-])o3)c2=O)[C@H](O)[C@@H]1O [Compound 2c] |  | 80.3 µM | 400 µM | 4.99 | 7.62 | 57.4 µM | 437 µM |  | 88% | 0.6 h | 4 h | 69.6% | 84% | 77.5% | significantly higher | No significant drug-related toxic reactions were observed | smaller weight fluctuations and were slightly higher than those of the positive control group |
| C[C@H]1O[C@@H](n2cc(F)c(=O)n(Cc3ccco3)c2=O)[C@H](O)[C@@H]1O [Compound 5c] | > 90% | 423 µM | 412 µM | 0.97 | 1.09 | 422 µM | 459 µM | similarly stable |  |  |  |  |  |  |  |  |  |
| C[C@H]1O[C@@H](n2cc(F)c(=O)n(Cc3ccc([N+](=O)[O-])cc3)c2=O)[C@H](O)[C@@H]1O [Compound 1c] |  | 106 µM | 470 µM | 4.42 | 7.39 | 79 µM | 584 µM |  | 89% | 1.3 h | 12 h | 45.1% | 86% |  |  |  |  |
| C[C@H]1O[C@@H](n2cc(F)c(=O)n(Cc3ccccc3)c2=O)[C@H](O)[C@@H]1O [Compound 4c] | > 90% | 537 µM | 495 µM | 0.92 | 1.01 | 614 µM | 621 µM | similarly stable |  |  |  |  |  |  |  |  |  |
